Source: ChEMBL document CHEMBL1201862, “PubChem BioAssay data set” (2004)
Active and inactive are the calls of the source.

Legend:
[1] = target: DNA damage-inducible transcript 3 protein (Mus musculus, UniProt P35639); assay type: functional, Cricetulus griseus
HEK293 [2] = test: cells; assay type: functional, cell-based; settings: Homo sapiens
X-box-binding protein 1 = target: T1, X-box-binding protein 1 (Homo sapiens, UniProt P17861); assay type: functional, Cricetulus griseus;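 further: confirmatory dose-response counter-screen serving a CHOP assay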
T1 sequence (P17861 whole entry): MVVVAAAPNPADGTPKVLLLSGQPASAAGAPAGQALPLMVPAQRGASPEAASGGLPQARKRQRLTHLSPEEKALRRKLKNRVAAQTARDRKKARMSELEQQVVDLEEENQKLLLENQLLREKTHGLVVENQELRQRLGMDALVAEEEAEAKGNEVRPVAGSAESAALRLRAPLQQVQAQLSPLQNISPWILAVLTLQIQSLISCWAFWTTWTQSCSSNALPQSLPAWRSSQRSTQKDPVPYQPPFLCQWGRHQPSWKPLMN

HEK293 [3] = test: cells; assay type: functional, cell-based; settings: Homo sapiens; remark: listed apart in the source
HEK293 [4] = test: NOD2 signaling inhibitors in MDP-stimulated cells, cell-based, uHTS, luminescence (AID 2001); assay type: functional; settings: Homo sapiens
HEK293 [5] = test: inhibition of NOD1-driven NF-kB reporter – cell-based, luminescence, uHTS, primary screen (AID 1578); assay type: functional; settings: Homo sapiens
[6] = microbe, parasite or virus in culture; assay type: functional; settings: Mycobacterium tuberculosis
Ion channel NompC = Ion channel NompC (Danio rerio, UniProt Q7T1G6); test: Dose response cell-based high-throughput screening assay for agonists of the transient receptor potential channel N1 (TRPN1). [Related pubchem assays (depositor defined):AID1424, AID1448]; assay type: functional
Mucolipin-3 = target: T2, Mucolipin-3 (Homo sapiens, UniProt Q8TDD5); test: Fluorescence counterscreen assay for […] agonists: dose response cell-based high-throughput screening assay to identify agonists of the transient receptor potential channel ML3 (TRPML3). [Related pubchem assays: 1424, 1448 ]; assay type: functional
T2 sequence (Q8TDD5 whole entry): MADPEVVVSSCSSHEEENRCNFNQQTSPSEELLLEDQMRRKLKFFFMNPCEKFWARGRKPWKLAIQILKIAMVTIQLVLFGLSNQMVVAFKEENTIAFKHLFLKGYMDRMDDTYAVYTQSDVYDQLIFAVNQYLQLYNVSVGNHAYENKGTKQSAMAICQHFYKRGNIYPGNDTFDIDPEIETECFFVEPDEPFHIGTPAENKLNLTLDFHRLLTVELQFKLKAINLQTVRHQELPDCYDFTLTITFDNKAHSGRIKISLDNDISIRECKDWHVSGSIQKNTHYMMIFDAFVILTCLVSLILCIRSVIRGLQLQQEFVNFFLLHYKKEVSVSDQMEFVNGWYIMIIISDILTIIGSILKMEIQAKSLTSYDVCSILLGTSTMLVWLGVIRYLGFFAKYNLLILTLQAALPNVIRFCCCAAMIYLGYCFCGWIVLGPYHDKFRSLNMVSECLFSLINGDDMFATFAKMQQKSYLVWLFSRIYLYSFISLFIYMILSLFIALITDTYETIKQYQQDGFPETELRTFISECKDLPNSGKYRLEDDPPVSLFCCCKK

Phosphomannomutase 2 = Phosphomannomutase 2 (Homo sapiens, UniProt O15305); test: Counter screen SAR assay for PMM2 inhibitors via a fluorescence intensity assay. [Related pubchem assays (depositor defined):AID1545, AID1574]
[7] = target: T3, Mannose-6-phosphate isomerase (Homo sapiens, UniProt P34949); test: phosphomannose isomerase inhibition – biochemical, fluorescence intensity, confirmation (AID 1535)
T3 sequence (P34949 whole entry): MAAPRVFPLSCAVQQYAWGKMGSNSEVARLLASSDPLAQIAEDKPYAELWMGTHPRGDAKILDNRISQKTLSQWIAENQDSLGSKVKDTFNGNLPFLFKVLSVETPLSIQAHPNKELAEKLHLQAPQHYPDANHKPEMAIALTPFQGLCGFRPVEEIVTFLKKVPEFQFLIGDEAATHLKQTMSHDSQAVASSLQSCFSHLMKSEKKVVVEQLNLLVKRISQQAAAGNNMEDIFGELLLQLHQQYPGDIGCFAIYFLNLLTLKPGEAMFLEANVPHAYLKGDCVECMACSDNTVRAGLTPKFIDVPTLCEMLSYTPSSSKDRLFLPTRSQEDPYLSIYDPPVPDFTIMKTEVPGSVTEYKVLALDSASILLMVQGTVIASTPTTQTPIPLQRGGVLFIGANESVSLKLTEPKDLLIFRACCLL

[8] = target: T4, Replicative DNA helicase DnaB (Mycobacterium tuberculosis, UniProt P9WMR3); test: DnaB intein splicing inhibitors, dose response, biochemical, cell-free fluorescence (AID 449749); assay type: functional
T4 sequence (P9WMR3 whole entry): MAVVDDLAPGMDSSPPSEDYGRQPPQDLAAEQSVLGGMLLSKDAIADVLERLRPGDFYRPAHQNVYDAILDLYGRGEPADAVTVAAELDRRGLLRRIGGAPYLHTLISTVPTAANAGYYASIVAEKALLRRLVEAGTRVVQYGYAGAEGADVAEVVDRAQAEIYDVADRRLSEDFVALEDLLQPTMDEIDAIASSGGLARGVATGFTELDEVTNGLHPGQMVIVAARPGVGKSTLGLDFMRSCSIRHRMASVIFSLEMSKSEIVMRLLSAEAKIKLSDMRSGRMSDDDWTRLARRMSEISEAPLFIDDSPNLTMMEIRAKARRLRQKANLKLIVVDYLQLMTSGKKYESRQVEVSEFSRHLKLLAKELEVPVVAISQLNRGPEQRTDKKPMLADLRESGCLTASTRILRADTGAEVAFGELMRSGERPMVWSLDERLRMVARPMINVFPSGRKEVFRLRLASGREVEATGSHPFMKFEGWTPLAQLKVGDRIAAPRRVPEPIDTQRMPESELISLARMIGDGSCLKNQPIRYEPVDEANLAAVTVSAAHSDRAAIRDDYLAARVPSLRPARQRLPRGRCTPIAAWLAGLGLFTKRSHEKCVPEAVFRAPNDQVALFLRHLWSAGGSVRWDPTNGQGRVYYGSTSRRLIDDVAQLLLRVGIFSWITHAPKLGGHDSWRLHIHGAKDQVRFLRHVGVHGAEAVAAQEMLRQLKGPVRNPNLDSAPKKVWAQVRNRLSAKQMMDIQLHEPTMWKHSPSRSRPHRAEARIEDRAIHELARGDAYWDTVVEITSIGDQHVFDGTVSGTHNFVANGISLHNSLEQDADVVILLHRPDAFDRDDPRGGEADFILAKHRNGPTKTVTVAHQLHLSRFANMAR

Troponin, cardiac muscle = Troponin, cardiac muscle (Homo sapiens, UniProt P19429+P45379+P63316); test: Fluorescence-based biochemical high throughput dose response assay for activators of the calcium sensitivity of cardiac Regulated Thin Filaments (RTF). [Related pubchem assays (depositor defined):AID493008, AID493018, AID504382, AID504383]; assay type: protein-complex assay
Protein RecA = target: T5, Protein RecA (Mycobacterium tuberculosis, UniProt P9WHJ3); test: Fluorescence Cell-Free Homogeneous Dose Retest to Identify Inhibitors of RecA-Intein Splicing Activity. [Related pubchem assays (depositor defined):AID2097, AID2223, AID489010, AID492950]; assay type: functional
T5 sequence (P9WHJ3 whole entry): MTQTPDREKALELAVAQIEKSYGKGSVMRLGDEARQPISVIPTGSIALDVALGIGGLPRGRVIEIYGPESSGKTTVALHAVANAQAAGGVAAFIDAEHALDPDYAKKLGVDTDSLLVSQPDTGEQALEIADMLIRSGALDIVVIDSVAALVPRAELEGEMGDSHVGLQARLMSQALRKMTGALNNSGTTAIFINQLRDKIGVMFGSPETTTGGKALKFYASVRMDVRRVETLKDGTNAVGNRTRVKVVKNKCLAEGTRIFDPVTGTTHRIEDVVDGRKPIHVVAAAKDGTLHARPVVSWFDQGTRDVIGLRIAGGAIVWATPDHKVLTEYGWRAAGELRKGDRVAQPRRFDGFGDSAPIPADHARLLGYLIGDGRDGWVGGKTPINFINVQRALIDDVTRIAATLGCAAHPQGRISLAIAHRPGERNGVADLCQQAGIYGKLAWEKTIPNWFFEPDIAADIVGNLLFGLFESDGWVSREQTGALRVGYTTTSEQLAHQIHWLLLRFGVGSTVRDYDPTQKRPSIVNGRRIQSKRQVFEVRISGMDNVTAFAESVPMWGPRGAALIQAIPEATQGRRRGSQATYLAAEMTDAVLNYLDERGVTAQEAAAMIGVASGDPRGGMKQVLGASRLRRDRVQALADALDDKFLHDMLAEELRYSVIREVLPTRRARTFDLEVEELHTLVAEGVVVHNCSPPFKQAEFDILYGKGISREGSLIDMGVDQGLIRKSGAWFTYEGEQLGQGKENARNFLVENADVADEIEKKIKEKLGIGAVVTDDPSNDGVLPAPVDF

[9] = target: Peroxisome proliferator-activated receptor gamma/Nuclear receptor coactivator 1 (Homo sapiens, UniProt P37231); test: TR-FRET dose response biochemical High Throughput Screening assay for agonists of the steroid receptor coactivator 1 (SRC-1) recruitment by the peroxisome proliferator-activated receptor gamma (PPAR gamma): non-selective agonists. [Related pubchem assays (depositor defined):AID1300, AID1808, AID504735, AID631]; assay type: protein assay
[10] = target: Peroxisome proliferator-activated receptor gamma/Nuclear receptor coactivator 2 (Homo sapiens, UniProt P37231); test: (§1) TR-FRET dose response biochemical High Throughput Screening assay for agonists of the steroid receptor coactivator 2 (SRC-2) recruitment by the peroxisome proliferator-activated receptor gamma (PPAR gamma): non-selective agonists. [Related pubchem assays: 1297, 1032 ]; assay type: functional
[11] = target: Peroxisome proliferator-activated receptor gamma/Nuclear receptor coactivator 3 (Homo sapiens, UniProt P37231); test: as §1, with “3 (SRC-3)” for “2 (SRC-2)”, “1301 (Confirmation screen.), 1048 (Primary screen.)]” for “1297, 1032 ]”; assay type: functional

O=C1NC(=O)N(Cc2ccco2)C(=O)/C1=C/C=C/c1ccco1
Absolute IC50 (CHOP) [1]: 10 µM | IC50 (HEK293 [2]): 16.2 µM (active) | Absolute IC50 (XBP1) (X-box-binding protein 1): 10 µM | IC50 (HEK293 [3]): > 20 µM (inactive) | IC50 (HEK293 [4]): > 20 µM (inactive) | EC50 (HEK293 [5]): > 20 µM (inactive)

COc1cc(S(=O)(=O)NCc2ccncc2)ccc1Br
IC50 (HEK293 [2]): 16.5 µM (active) | IC50 (HEK293 [3]): > 20 µM (inactive) | IC50 (HEK293 [4]): > 20 µM (inactive) | EC50 (HEK293 [5]): 3.02 µM (active)

C/C(=C1/C(=O)N(c2ccc([N+](=O)[O-])cc2)N=C1c1ccccc1)N(C)C
CC50 [6]: 10.6 µM (active) | EC50 (Ion channel NompC): 3.71 µM (active) | EC50 (Mucolipin-3): 5.21 µM (active)

Clc1cccc(/N=c2\ssnc2Cl)c1
IC50 (Phosphomannomutase 2): > 100 µM (inactive) | IC50 [7]: 51.1 µM (active)

Cc1cccc(/C=N/NC(=O)C(C)Nc2cccc3ccccc23)n1 (stereo unspecified)
AC50 [8]: 3.78 µM (active) | EC50 (Troponin, cardiac muscle): 10.5 µM (inactive) | EC50 (Protein RecA): 47.1 µM (active)

CSc1oc(-c2ccccc2)nc1C(N)=O
EC50 [9]: 359 µM (inactive) | EC50 [10]: 60.1 µM (not active) | EC50 [11]: > 79.4 µM (not active)
